Measurements: PubChem BioAssay AID2060497 (Molecular Pharmacology Branch, DTP, NCI, 2025)

Test system: 317291-083-R-J1-PDC complex spheroids, viability
Assay: Anticancer human tumor 317291-083-R-J1-PDC patient-derived soft tissue sarcoma cell line growth inhibition [GQUAD]
Details: for IC50: curve of first compound; for viability, T/C: stronger effect = lower value
Outline: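 Multi-cell-type spheroids of tumor cells with HUVEC and mesenchymal stem cells, treated with drug combinations. Concentrations descend in half-log steps from near clinical Cmax, or from 10 microM where Cmax is unknown; viability read-out.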

[1] = second compound 0.0316 µM, first compound 0.0316 µM
[2] = second compound 0.0316 µM, first compound 0.1 µM
[3] = second compound 0.0316 µM, first compound 0.316 µM
[4] = second compound 0.0316 µM, first compound 1 µM
[5] = second compound 0.0316 µM, first compound 3.16 µM
[6] = second compound 0.0316 µM, first compound 10 µM
[7] = second compound 0.1 µM, first compound 0.0316 µM
[8] = second compound 0.1 µM, first compound 0.1 µM
[9] = second compound 0.1 µM, first compound 0.316 µM
[10] = second compound 0.1 µM, first compound 1 µM
[11] = second compound 0.1 µM, first compound 3.16 µM
[12] = second compound 0.1 µM, first compound 10 µM
[13] = second compound 0.316 µM, first compound 0.0316 µM
[14] = second compound 0.316 µM, first compound 0.1 µM
[15] = second compound 0.316 µM, first compound 0.316 µM
[16] = second compound 0.316 µM, first compound 1 µM
[17] = second compound 0.316 µM, first compound 3.16 µM
[18] = second compound 0.316 µM, first compound 10 µM
[19] = second compound 1 µM, first compound 0.0316 µM
[20] = second compound 1 µM, first compound 0.1 µM
[21] = second compound 1 µM, first compound 0.316 µM
[22] = second compound 1 µM, first compound 1 µM
[23] = second compound 1 µM, first compound 3.16 µM
[24] = second compound 1 µM, first compound 10 µM
[25] = second compound 3.16 µM, first compound 0.0316 µM
[26] = second compound 3.16 µM, first compound 0.1 µM
[27] = second compound 3.16 µM, first compound 0.316 µM
[28] = second compound 3.16 µM, first compound 1 µM
[29] = second compound 3.16 µM, first compound 3.16 µM
[30] = second compound 3.16 µM, first compound 10 µM
[31] = second compound 10 µM, first compound 0.0316 µM
[32] = second compound 10 µM, first compound 0.1 µM
[33] = second compound 10 µM, first compound 0.316 µM
[34] = second compound 10 µM, first compound 1 µM
[35] = second compound 10 µM, first compound 3.16 µM
[36] = second compound 10 µM, first compound 10 µM
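Also: spheroids exposed to compounds for one week before readout.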
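For viability, T/C in this document: percent viability relative to DMSO vehicle wells taken as 100%.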

Nc1ccn(C2OC(CO)C(O)C2(F)F)c(=O)n1 (stereo not drawn) + CN(C)c1ccc(Nc2c3ccc(NC(=O)CCN4CCCC4)cc3nc3cc(NC(=O)CCN4CCCC4)ccc23)cc1 showed an IC50 (second compound 0.0316 µM) of 44.5 nM, an IC50 (second compound 0.1 µM) of 37.7 nM and an IC50 (second compound 0.316 µM) of less than 31.6 nM. For the same molecule, the IC50 (second compound 1 µM) was less than 31.6 nM, the IC50 (second compound 3.16 µM) was less than 31.6 nM and the IC50 (second compound 10 µM) was less than 31.6 nM. The viability, T/C [1] was 62.2%, the viability, T/C [2] was 21.4% and the viability, T/C [3] was 12.5%. For the same molecule, the viability, T/C [4] was 11.5%, the viability, T/C [5] was 13.7% and the viability, T/C [6] was 11.4%. It also gave a viability, T/C [7] of 54.9%, a viability, T/C [8] of 23.9% and a viability, T/C [9] of 13.7%. For the same molecule, the viability, T/C [10] was 10.9%, the viability, T/C [11] was 10.9% and the viability, T/C [12] was 9.57%. It also gave a viability, T/C [13] of 44.9%, a viability, T/C [14] of 27.4% and a viability, T/C [15] of 11.9%. For the same molecule, the viability, T/C [16] was 9.85%, the viability, T/C [17] was 9.6% and the viability, T/C [18] was 8.28%. It also gave a viability, T/C [19] of 26.9%, a viability, T/C [20] of 27.8% and a viability, T/C [21] of 10.5%. For the same molecule, the viability, T/C [22] was 7.35%, the viability, T/C [23] was 7.21% and the viability, T/C [24] was 7.95%. It also gave a viability, T/C [25] of 15.6%, a viability, T/C [26] of 7.01% and a viability, T/C [27] of 6.98%. It also gave a viability, T/C [28] of 4.89%, a viability, T/C [29] of 4.18% and a viability, T/C [30] of 5.05%. The viability, T/C [31] was 10.3%, the viability, T/C [32] was 3.73% and the viability, T/C [33] was 1.83%. It also gave a viability, T/C [34] of 4.43%, a viability, T/C [35] of 2.4% and a viability, T/C [36] of 2.72%.

COc1ncnc(C2CC2)c1-c1ncc2cnn(Cc3ccc(-c4nc(C(F)(F)F)cn4C(C)C)cc3)c2n1 + Cc1cnc(CNC(=O)c2c(=O)c3ccc(N4CCCN(C)CC4)nc3n3c2sc2ccccc23)cn1 showed an IC50 (second compound 0.0316 µM) greater than 10000 nM, an IC50 (second compound 0.1 µM) of 138 nM and an IC50 (second compound 0.316 µM) of 373 nM. For the same molecule, the IC50 (second compound 1 µM) was less than 31.6 nM, the IC50 (second compound 3.16 µM) was less than 31.6 nM and the IC50 (second compound 10 µM) was less than 31.6 nM. For the same molecule, the viability, T/C [1] was 78.3%, the viability, T/C [2] was 76.8% and the viability, T/C [3] was 71.6%. For the same molecule, the viability, T/C [4] was 72.2%, the viability, T/C [5] was 67% and the viability, T/C [6] was 54.1%. It also gave a viability, T/C [7] of 59.5%, a viability, T/C [8] of 51.1% and a viability, T/C [9] of 47.3%. It also gave a viability, T/C [10] of 39.3%, a viability, T/C [11] of 56.1% and a viability, T/C [12] of 53%. For the same molecule, the viability, T/C [13] was 46.6%, the viability, T/C [14] was 48.1% and the viability, T/C [15] was 63.6%. The viability, T/C [16] was 31.2%, the viability, T/C [17] was 37.4% and the viability, T/C [18] was 32%. It also gave a viability, T/C [19] of 31.3%, a viability, T/C [20] of 36.8% and a viability, T/C [21] of 44.1%. It also gave a viability, T/C [22] of 30.5%, a viability, T/C [23] of 32.3% and a viability, T/C [24] of 25.8%. It also gave a viability, T/C [25] of 20.5%, a viability, T/C [26] of 13.6% and a viability, T/C [27] of 30%. It also gave a viability, T/C [28] of 15.5%, a viability, T/C [29] of 16.2% and a viability, T/C [30] of 21.2%. It also gave a viability, T/C [31] of 0.63%, a viability, T/C [32] of 0.19% and a viability, T/C [33] of 0.22%. For the same molecule, the viability, T/C [34] was 0.19%, the viability, T/C [35] was 0.26% and the viability, T/C [36] was 0.24%.

In the case of O=C(NO)c1cnc(N2CCN(S(=O)(=O)c3ccc4ccccc4c3)CC2)nc1 + CN(C)c1ccc(Nc2c3ccc(NC(=O)CCN4CCCC4)cc3nc3cc(NC(=O)CCN4CCCC4)ccc23)cc1, the IC50 (second compound 0.0316 µM) is reported as 120 nM, the IC50 (second compound 0.1 µM) is reported as 134 nM and the IC50 (second compound 0.316 µM) is reported as 78.9 nM. It also gave an IC50 (second compound 1 µM) of less than 31.6 nM, an IC50 (second compound 3.16 µM) of less than 31.6 nM and an IC50 (second compound 10 µM) of less than 31.6 nM. The viability, T/C [1] was 102%, the viability, T/C [2] was 58.3% and the viability, T/C [3] was 5.38%. It also gave a viability, T/C [4] of 0.53%, a viability, T/C [5] of 0.02% and a viability, T/C [6] of 0.56%. The viability, T/C [7] was 97.1%, the viability, T/C [8] was 64.3% and the viability, T/C [9] was 7.56%. The viability, T/C [10] was 0.08%, the viability, T/C [11] was 0.71% and the viability, T/C [12] was 0.06%. For the same molecule, the viability, T/C [13] was 90.5%, the viability, T/C [14] was 39.5% and the viability, T/C [15] was 5.83%. The viability, T/C [16] was 0.06%, the viability, T/C [17] was 0.09% and the viability, T/C [18] was 0.1%. It also gave a viability, T/C [19] of 38.2%, a viability, T/C [20] of 18.5% and a viability, T/C [21] of 1.87%. It also gave a viability, T/C [22] of 0.1%, a viability, T/C [23] of 0.06% and a viability, T/C [24] of 0.08%. For the same molecule, the viability, T/C [25] was 10.9%, the viability, T/C [26] was 1.33% and the viability, T/C [27] was 0.19%. It also gave a viability, T/C [28] of 0.07%, a viability, T/C [29] of 0.12% and a viability, T/C [30] of 0.09%. It also gave a viability, T/C [31] of 1.1%, a viability, T/C [32] of 0.76% and a viability, T/C [33] of 0.24%. The viability, T/C [34] was 0.36%, the viability, T/C [35] was 0.28% and the viability, T/C [36] was 0.21%.

C#Cc1c(F)ccc2cc(O)cc(-c3ncc4c(N5CC6CCC(C5)N6)nc(OCC56CCCN5CC(F)C6)nc4c3F)c12 (stereo not drawn) + Cc1cnc(CNC(=O)c2c(=O)c3ccc(N4CCCN(C)CC4)nc3n3c2sc2ccccc23)cn1 showed an IC50 (second compound 0.0316 µM) greater than 10000 nM, an IC50 (second compound 0.1 µM) greater than 10000 nM and an IC50 (second compound 0.316 µM) of less than 31.6 nM. It also gave an IC50 (second compound 1 µM) of less than 31.6 nM, an IC50 (second compound 3.16 µM) of less than 31.6 nM and an IC50 (second compound 10 µM) of less than 31.6 nM. It also gave a viability, T/C [1] of 107%, a viability, T/C [2] of 104% and a viability, T/C [3] of 99.9%. For the same molecule, the viability, T/C [4] was 105%, the viability, T/C [5] was 90.6% and the viability, T/C [6] was 66.5%. The viability, T/C [7] was 89%, the viability, T/C [8] was 74.4% and the viability, T/C [9] was 57.7%. For the same molecule, the viability, T/C [10] was 87.2%, the viability, T/C [11] was 76% and the viability, T/C [12] was 80.9%. For the same molecule, the viability, T/C [13] was 45.3%, the viability, T/C [14] was 52.1% and the viability, T/C [15] was 53.3%. For the same molecule, the viability, T/C [16] was 36.7%, the viability, T/C [17] was 51.7% and the viability, T/C [18] was 51.8%. It also gave a viability, T/C [19] of 31.4%, a viability, T/C [20] of 36.5% and a viability, T/C [21] of 38.9%. The viability, T/C [22] was 24.8%, the viability, T/C [23] was 27.4% and the viability, T/C [24] was 21%. The viability, T/C [25] was 14.7%, the viability, T/C [26] was 18.3% and the viability, T/C [27] was 31.5%. It also gave a viability, T/C [28] of 14.1%, a viability, T/C [29] of 22.6% and a viability, T/C [30] of 19.1%. For the same molecule, the viability, T/C [31] was 38.2%, the viability, T/C [32] was 22.9% and the viability, T/C [33] was 10.5%. For the same molecule, the viability, T/C [34] was 13.7%, the viability, T/C [35] was 11.1% and the viability, T/C [36] was 3.98%.
